The results in this text go back to patent publication US10723727B2, “Tubulysin analogs and methods for their preparation” (priority 2016, dated 2020).

One may read the IC50 as the midpoint of a concentration-inhibition curve.

Test [1] deals with MDA-MB-361-DYT2 (breast cancer) cells. Nature of the test: In vitro cell assay (MTS cell viability), MDA-MB-361-DYT2. It is filed as cell-based. Conditions: 96 h, free compounds; 96 hours after treatment. On the procedure:
(§1) In Vitro Cell Assay Procedure
(§2) Target expressing (BT474 (breast cancer), N87 (gastric cancer), HCC1954 (breast cancer), MDA-MB-361-DYT2 (breast cancer)) or non-expressing (HT-29) cells were seeded in 96-well cell culture plates for 24 hours before treatment. Cells were treated with 3-fold serially diluted antibody-drug conjugates or free compounds (i. e. no antibody conjugated to the drug) in duplicate at 10 concentrations. Cell viability was determined by CellTiter 96® AQueous One Solution Cell Proliferation MTS Assay (Promega, Madison Wis.) 96 hours after treatment. Relative cell viability was determined as percentage of untreated control. IC50 values were calculated using a four parameter logistic model #203 with XLfit v4. 2 (IDBS, Guildford, Surry, UK).

The target of test [2] is T1, tubulin/RB3-stathmin-like-domain (RB3-SLD-tdm) complex (Sus scrofa, UniProt P02550+P02554).
T1 construct: purchased Cytoskeleton, Inc. T240; host or cells: RB3-SLD was made in house in E. coli
Nature of the test: Tubulin Peptide-Binding Site Competition Assay (fluorescence polarization). More on the design: species or system Porcine. On the procedure:
Tubulin Peptide-Binding Site Competition Assay
Tubulin binding potency was measured for payloads or cysteine-capped linker-payloads using a fluorescence polarization (FP) competition assay. The binding of a BODIPY-labeled vinca peptide probe (# B31) to a tubulin/RB3-stathmin-like-domain (RB3-SLD-tdm) complex generates a high FP signal, which can be decreased when mixing with test compounds that compete with the FP probe. The order of addition for the reagents in the FP assay was designed to pre-mix the FP probe with various concentrations of the test compound before mixing them with the tubulin/RB3-SLD-dm complex. The final assay concentrations of the probe, tubulin and RB3-SLD-dm were 3, 6, and 100 nM, respectively. IC50 for each test compound is obtained by fitting the dose-dependent FP signal change using GraphPad Prism version 5 software (La Jolla, Calif.) while Ki is converted from the IC50 using the equations described previously (Nikolovska-Coleska et al., 2004). The FP signals were measured on an Infinite M1000 (Tecan, San Jose, Calif.) using ProxiPlate-384 F Plus, Black (Perkin-Elmer, Waltham, Mass., Cat #6008260) with 15 μL of solution per well. Sample dilution and mixing were done using a Beckman Biomek XF (Brea, Calif.). Porcine tubulin was purchased from Cytoskeleton, Inc. (Denver, Colo., Cat #T240) and RB3-SLD was expressed in E. coli. and purified on Q and then Superdex75 columns. The FP assay test for each compound was run in duplicates by mixing 6 μL of solution 1 containing 2.5× test compound (2.5× serial dilution from 7.8 μM maximum concentration, 11 total concentrations) and 7.5 nM of the FP probe in 80 mM PIPES, pH 7.0, 0.02% Tween 20, 2 mM MgCl2, 1 mM EGTA and 3% DMSO with 9 μL of solution 2 containing […] porcine tubulin and 167 nM of RB3-SLD-dm peptide ([…]-[…]) on ProxiPlate-384 micro-plates.
(In general: Polarisation of emitted light reports the rotation of a fluorescent probe.)

For test [3], the system named is N87 (gastric cancer) cells. Nature of the test: In vitro cell assay (MTS cell viability), N87. The format is cell-based. Conditions: 96 h, free compounds; 96 hours after treatment. The procedure: as §1, §2
The mark [4] stands for this setting: FP competition with BODIPY-labeled vinca peptide probe, read after five hours at 22° C., read-out: Tubulin Peptide-Binding Site Competition Assay IC50.

Like-named read-outs stand apart in the source and are kept apart here.

Turning to `CC[C@H](C)[C@H](NC(=O)[C@H]1CCCCN1C)C(=O)N(C)[C@H](C[C@@H](OC(C)=O)c1nc(C(=O)N[C@@H](Cc2ccccc2)CC(C)P(=O)(O)O)cs1)C(C)C` (stereo partly drawn) [#B3, N-[(1R,3R)-1-(acetyloxy)-4-methyl-1-(4-{[(2S)-1-phenyl-4-phosphonopentan-2-yl]carbamoyl}-1,3-thiazol-2-yl)pentan-3-yl]-N-methyl-N˜2˜-{[(2R)-1-methylpiperidin-2-yl]carbonyl}-L-isoleucinamide], the results for the IC50 in test [1], in test [2] and in test [3] were 9.4 nM, 4.4 nM and 14.8 nM, respectively.

On to `CC[C@H](C)[C@H](NC(=O)[C@@]1(C)CCCN1)C(=O)N(C)[C@H](C[C@@H](OC(C)=O)c1nc(C(=O)N[C@@H](Cc2ccccc2)C[C@H](C)C(=O)OC)cs1)C(C)C` [#B6, 2-methyl-D-prolyl-N-[(1R,3R)-1-(acetyloxy)-1-(4-{[(2R,4S)-5-methoxy-4-methyl-5-oxo-1-phenylpentan-2-yl]carbamoyl}-1,3-thiazol-2-yl)-4-methylpentan-3-yl]-N-methyl-L-isoleucinamide], for which the values for the IC50 in test [1], in test [2] (setting [4]) and in test [3] were 18.6 nM, 119 nM and 29.3 nM, respectively.

Take `CCOC(=O)[C@@H](C)C[C@H](Cc1ccccc1)NC(=O)c1csc([C@@H](C[C@H](C(C)C)N(C)C(=O)[C@@H](NC(=O)[C@@]2(C)CCCN2C)[C@@H](C)CC)OC(C)=O)n1` [#B7, 1,2-dimethyl-D-prolyl-N-[(1R,3R)-1-(acetyloxy)-1-(4-{[(2R,4S)-5-ethoxy-4-methyl-5-oxo-1-phenylpentan-2-yl]carbamoyl}-1,3-thiazol-2-yl)-4-methylpentan-3-yl]-N-methyl-L-isoleucinamide]: the figures for the IC50 in test [1], in test [2] (setting [4]) and in test [3] were 5.15 nM, 11.9 nM and 9.53 nM, respectively.

Take `CC[C@H](C)[C@H](NC(=O)[C@H]1CCCCN1C)C(=O)N(C)[C@H](C[C@@H](OC(C)=O)c1nc(C(=O)NC(Cc2ccccc2)c2nc(C(=O)O)cs2)cs1)C(C)C` (stereo partly drawn) [#B37, 2-(1-{[(2-{(1R,3R)-1-(acetyloxy)-4-methyl-3-[methyl(N-{[(2R)-1-methylpiperidin-2-yl]carbonyl}-L-isoleucyl)amino]pentyl}-1,3-thiazol-4-yl)carbonyl]amino}-2-phenylethyl)-1,3-thiazole-4-carboxylic acid]: the figures for the IC50 in test [1], in test [2] (setting [4]) and in test [3] were 240 nM, 1.3 nM and 228 nM, respectively.

For `CC[C@H](C)[C@H](NC(=O)[C@H]1CCCCN1C)C(=O)N(C)[C@H](C[C@@H](OC(C)=O)c1nc(C(=O)NCCn2ccccc2=O)cs1)C(C)C` [#B41, (1R,3R)-4-methyl-3-[methyl(N-{[(2R)-1-methylpiperidin-2-yl]carbonyl}-L-isoleucyl)amino]-1-[4-{[2-(2-oxopyridin-1(2H)-yl)ethyl]carbamoyl}-1,3-thiazol-2-yl)pentyl acetate], the IC50 in test [1] turned out to be 1.44 nM; in test [2] (setting [4]), 4.41 nM; in test [3], 2 nM.

Turning to `CCOC(=O)c1ncoc1[C@H](Cc1ccccc1)NC(=O)c1csc([C@@H](C[C@H](C(C)C)N(C)C(=O)[C@@H](NC(=O)[C@@]2(C)CCCN2C)[C@@H](C)CC)OC(C)=O)n1` [#B75, 1,2-dimethyl-D-prolyl-N-{(1R,3R)-1-(acetyloxy)-1-[4-({(1S)-1-[4-(ethoxycarbonyl)-1,3-oxazol-5-yl]-2-phenylethyl}carbamoyl)-1,3-thiazol-2-yl]-4-methylpentan-3-yl}-N-methyl-L-isoleucinamide], the IC50 in test [2] (setting [4]) is 25.8 nM.

As for `CC[C@H](C)[C@H](NC(=O)[C@@]1(C)CCCN1C)C(=O)N(C)[C@H](C[C@@H](OC(C)=O)c1nc(C(=O)NC(Cc2ccccc2)c2ccc(N(C)C)cc2)cs1)C(C)C` (stereo partly drawn) [#B66, 1,2-dimethyl-D-prolyl-N-{(1R,3R)-1-(acetyloxy)-1-[4-({1-[4-(dimethylamino)phenyl]-2-phenylethyl}carbamoyl)-1,3-thiazol-2-yl]-4-methylpentan-3-yl}-N-methyl-L-isoleucinamide], in test [2] (setting [4]), the IC50 is 52.2 nM.

With `CC[C@H](C)[C@H](NC(=O)[C@@]1(C)CCCN1C)C(=O)N(C)[C@H](C[C@@H](OC(C)=O)c1nc(C(=O)NCCc2ccc(-c3ccccc3)cc2)cs1)C(C)C` [#B45, 1,2-dimethyl-D-prolyl-N-[(1R,3R)-1-(acetyloxy)-1-(4-{[2-(biphenyl-4-yl)ethyl]carbamoyl}-1,3-thiazol-2-yl)-4-methylpentan-3-yl]-N-methyl-L-isoleucinamide], the IC50 in test [2] (setting [4]) was determined as 436 nM.

`CC[C@H](C)[C@H](NC(=O)[C@@]1(C)CCCN1C)C(=O)N(C)[C@H](C[C@@H](OC(C)=O)c1nc(C(=O)NCCc2c[nH]cn2)cs1)C(C)C` [#B54, 1,2-dimethyl-D-prolyl-N-[(1R,3R)-1-(acetyloxy)-1-(4-{[2-(1H-imidazol-4-yl)ethyl]carbamoyl}-1,3-thiazol-2-yl)-4-methylpentan-3-yl]-N-methyl-L-isoleucinamide]: the IC50 in test [2] (setting [4]) worked out at 60.6 nM.

On to `CC[C@H](C)[C@H](NC(=O)[C@@]1(C)CCCN1C)C(=O)N(C)[C@H](C[C@@H](OC(C)=O)c1nc(C(=O)NC2(c3ccccn3)CC2)cs1)C(C)C` [#B63], for which the IC50 in test [2] (setting [4]) amounted to 105 nM.

With `CC[C@H](C)[C@H](NC(=O)[C@@]1(C)CCCN1C)C(=O)N(C)[C@H](C[C@@H](OC(C)=O)c1nc(C(=O)NCCc2c[nH]c3ccccc23)cs1)C(C)C` [#B59, 1,2-dimethyl-D-prolyl-N-[(1R,3R)-1-(acetyloxy)-1-(4-{[2-(1H-indol-3-yl)ethyl]carbamoyl}-1,3-thiazol-2-yl)-4-methylpentan-3-yl]-N-methyl-L-isoleucinamide], the IC50 in test [2] (setting [4]) was 64.6 nM.

Take `CC[C@H](C)[C@H](NC(=O)[C@@]1(C)CCCN1C)C(=O)N(C)[C@H](C[C@@H](OC(C)=O)c1nc(C(=O)NCCN2CCOCC2)cs1)C(C)C` [#B46, 1,2-dimethyl-D-prolyl-N-[(1R,3R)-1-(acetyloxy)-4-methyl-1-(4-{[2-(morpholin-4-yl)ethyl]carbamoyl}-1,3-thiazol-2-yl)pentan-3-yl]-N-isomethyl-L-leucinamide]: the IC50 in test [2] (setting [4]) turned out to be 282 nM.

For the compound `CC[C@H](C)[C@H](NC(=O)[C@@]1(C)CCCN1C)C(=O)N(C)[C@H](C[C@@H](OC(C)=O)c1nc(C(=O)NCCn2nc(C)cc2C)cs1)C(C)C` [#B42, 1,2-dimethyl-D-prolyl-N-[(1R,3R)-1-(acetyloxy)-1-(4-{[2-(3,5-dimethyl-1H-pyrazol-1-yl)ethyl]carbamoyl}-1,3-thiazol-2-yl)-4-methylpentan-3-yl]-N-methyl-L-isoleucinamide], the IC50 in test [2] (setting [4]) came to 27.6 nM.

Turning to `CC[C@H](C)[C@H](NC(=O)[C@@]1(C)CCCN1C)C(=O)N(C)[C@H](C[C@@H](OC(C)=O)c1nc(C(=O)NCCN2CCOC2=O)cs1)C(C)C` [#B64, 1,2-dimethyl-D-prolyl-N-[(1R,3R)-1-(acetyloxy)-4-methyl-1-(4-{[2-(2-oxo-1,3-oxazolidin-3-yl)ethyl]carbamoyl}-1,3-thiazol-2-yl)pentan-3-yl]-N-methyl-L-isoleucinamide], in test [2] (setting [4]), the IC50 was found to be 73 nM.

Take `CC[C@H](C)[C@H](NC(=O)[C@@]1(C)CCCN1C)C(=O)N(C)[C@H](C[C@@H](OC(C)=O)c1nc(C(=O)NCC2(c3ccccc3)CCN(C)CC2)cs1)C(C)C` [#B65, 1,2-dimethyl-D-prolyl-N-[(1R,3R)-1-(acetyloxy)-4-methyl-1-(4-{[(1-methyl-4-phenylpiperidin-4-yl)methyl]carbamoyl}-1,3-thiazol-2-yl)pentan-3-yl]-N-methyl-L-isoleucinamide]: the IC50 in test [2] (setting [4]) turned out to be 33.8 nM.

Consider `CC[C@H](C)[C@H](NC(=O)[C@@]1(C)CCCN1C)C(=O)N(C)[C@H](C[C@@H](OC(C)=O)c1nc(C(=O)NCCn2ccnc2)cs1)C(C)C` [#B48, 1,2-dimethyl-D-prolyl-N-[(1R,3R)-1-(acetyloxy)-1-{4-{[2-(1H-imidazol-1-yl)ethyl]carbamoyl}-1,3-thiazol-2-yl)-4-methylpentan-3-yl]-N-methyl-L-isoleucinamide], for which the IC50 in test [2] (setting [4]) amounted to 110 nM.
